Laboratory results published in BindingDB's records for doi:10.1021/acs.jmedchem.8b00864 (2018).

molecular target: 2-acylglycerol O-acyltransferase 2 (MOGAT2, Homo sapiens) (UniProt Q3SYC2); test: Inhibition of recombinant human MGAT2 using 2-monooleoyl glycerol/[1-14C]-oleoyl CoA as substrate after 30 mins by liquid scintillation counting method
Sequence (Q3SYC2 whole entry, looked up): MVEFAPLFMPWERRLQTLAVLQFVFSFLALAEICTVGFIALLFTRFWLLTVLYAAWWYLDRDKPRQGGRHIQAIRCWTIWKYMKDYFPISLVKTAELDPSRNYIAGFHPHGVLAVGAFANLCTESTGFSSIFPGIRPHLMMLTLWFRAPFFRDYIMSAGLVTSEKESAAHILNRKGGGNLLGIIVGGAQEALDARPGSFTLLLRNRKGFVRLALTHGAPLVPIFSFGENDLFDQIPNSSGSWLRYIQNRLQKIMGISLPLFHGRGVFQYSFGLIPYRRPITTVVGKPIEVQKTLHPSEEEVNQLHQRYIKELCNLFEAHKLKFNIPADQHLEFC

Row | Compound | IC50 [nM]
1 | O=C(CCNC1Cc2ccccc2C1)N1CCc2nc(SC3CCC3)n(-c3ccccc3)c(=O)c2C1 | 0.38

molecular target: 2-acylglycerol O-acyltransferase 2 (MOGAT2, Homo sapiens) (UniProt Q3SYC2); test: Inhibition of recombinant human MGAT2 expressed in sf9 cells using 2-monooleoyl glycerol/[14C]-oleoyl CoA as substrate by microscintillation counting method

Row | Compound | IC50 [nM]
2 | CC(C)(C)C1CCN(Cc2ccc([C@H](NS(C)(=O)=O)C(F)(F)F)cc2)CC1 | 58
3 | CS(=O)(=O)N[C@@H](c1ccc(CNC[C@H]2COc3cccnc3O2)cc1)C(F)(F)F | 3.8

molecular target: 2-acylglycerol O-acyltransferase 2 (MOGAT2, Homo sapiens) (UniProt Q3SYC2); test: Inhibition of recombinant human MGAT2

Row | Compound | IC50 [nM]
4 | Cc1ccc(C2=C(C(=O)Nc3ccc(-c4nnn[nH]4)cc3)C(=O)N[C@@](c3ccc(OCCCC(F)(F)F)cc3F)(C(F)(F)F)C2)cc1 | 7
5 | O=C1N[C@@]2(CCc3cc(OCCCC(F)(F)F)ccc32)CC(c2cnc(C3CC3)s2)=C1c1noc(=O)[nH]1 | < 1
6 | O=C1N[C@@](c2ccc(OCCCC(F)(F)F)cc2F)(C(F)(F)F)CC(c2ncc(C3CC3)s2)=C1n1nn[nH]c1=O | 2
7 | CC(C)(C)c1cc(C(C)(C)C)nc(N2CCn3c(nnc3-c3ccc(OC(F)(F)F)cc3)C2)n1 | 19
8 | CCc1ccc(-c2cc(-c3ccc(OCCCCCC(F)(F)F)cc3C(F)(F)F)[nH]c(=O)c2-c2nn[nH]n2)s1 | 0.3

Second part, the compound after the results:

Row | IC50 [nM] | Compound
9 | 56 | O=c1c2c(nc(SCc3cccnc3)n1-c1ccccc1)CCN(c1nc3cc(C(F)(F)F)ccc3[nH]1)C2
10 | 4 | CCOC(=O)CCc1ccc(CN2CC(C(=O)N3CCc4nc(SC5CCCCC5)n(-c5ccccc5)c(=O)c4C3)C2)cc1
11 | 1.1 | O=C(CCNCC1COc2ccccc2O1)N1CCc2nc(SC3CCC3)n(-c3ccccc3)c(=O)c2C1 (configuration not stated)
12 | 0.64 | O=C(CNCCCCCOc1ccc(C(F)(F)F)cc1)N1CCc2nc(SC3CCC3)n(-c3ccccc3)c(=O)c2C1
